Assays:
[1] = tested on: eosinophilic esophogitis (EoE) patients; experiment: Example 1: budesonide gel therapy in patients with EoE; type: in vivo, human; settings: tolerance comparison; seven patients who received fluticasone and budesonide therapy
Protocol: Eighteen patients were entered into the study (mean age 41; 5 females; 13 males). 16 patients had more than 15 eos/HPF on tissue obtained from the esophagus by biopsy during endoscopy. […] Both these patients responded completely to steroids. The mean serum eosinophil count was 215. Three patients had normal endoscopies. Six patients had strictures. […] Mucosal fragility was described in one patient. […] 14 patients underwent allergy testing.
The following symptoms were recorded: dysphagia (18/18), heartburn (9/18), regurgitation (4/18), asthma (5/18), allergic skin disease (1/18), seasonal allergies (8/18), proton pump inhibitor (PPI) medication use to treat esophageal reflux disease (10/18), and history of food impaction (15/18).
Budesonide gel (3 mg/10 mL Rincinol) was formulated as provided below. Preparation involved accurate weighing and measuring of the ingredients. Trituration of the powder into the Rincinol liquid was performed using geometric dilution techniques. The product was stirred using a stir plate, packaged, and labeled.
The standard dose was 3 mg twice a day for one week, which was then decreased to once a day for six weeks. 11 of 18 patients received standard dosing. Six of 18 patients received an alternate treatment regiment of 3 mg twice a day for a variable treatment period of time of greater than one week. The longest of which was eight months. […]

[2] = tested on: patients with greater than 15 eos/HPF and solid food dysphagia (EoE); experiment: Example 2: BRG therapy of eosinophilic esophagitis in adults; type: in vivo, human; settings: 8 patients who had previously received fluticasone
Protocol: An oral gel combining budesonide with the mucosal adherent preparation Rincinol (the combination referred to as “BRG”) was compounded. Patients with abnormal Mayo dysphagia questionnaires underwent EGD with biopsies. 16 patients with greater than 15 eos/HPF and solid food dysphagia were enrolled in the study and treated with BRG. Patients were instructed to take BRG 3mg/10 cc BID. If patients noted marked improvement at one week, they were switched to once daily BRG for 6 weeks; otherwise they were continued on BID BRG for a total of 6 weeks. Dysphagia symptoms and BRG side effects over the last two weeks of treatment were assessed by personal interview. Symptoms were evaluated on a scale of dysphagia resolution: <25%, 25-49%, 50-74%, 75-99% or complete resolution. Those patients, who had previously utilized topical fluticasone for EoE, were asked to compare BRG vs topical fluticasone with respect to treatment effect and tolerance.

C[C@@H]1C[C@H]2[C@@H]3C[C@H](F)C4=CC(=O)C=C[C@]4(C)[C@@]3(F)[C@@H](O)C[C@]2(C)[C@@]1(O)C(=O)SCF [fluticasone]
patients who preferred fluticasone [1]: Two of the seven | patients who favored fluticasone (tolerance) [2]: 25%
